Experimental data published in the kinase profiling compilation of Christmann-Franck et al. (2016).

Tests used:
Experiment in all cases: KINOMEscan competition binding
Conditions in all cases: compound 1.0 µM
[1] = biological target: MAP3K9 (human) (UniProt P80192)
[2] = biological target: ULK2 (human) (UniProt Q8IYT8)
[3] = biological target: STK32C (human) (UniProt Q86UX6)
[4] = biological target: MAP3K15 (human) (UniProt Q6ZN16)
[5] = biological target: PIK3CD (human) (UniProt O00329)
[6] = biological target: NEK2 (human) (UniProt P51955)
[7] = biological target: EPHA3 (human) (UniProt P29320)
[8] = biological target: ERBB3 (human) (UniProt P21860)
[9] = biological target: FGFR3 (human) (UniProt P22607)
[10] = biological target: MKNK2 (human) (UniProt Q9HBH9)
[11] = biological target: NEK9 (human) (UniProt Q8TD19)
[12] = biological target: MINK1 (human) (UniProt Q8N4C8)
[13] = system: RET (human), P07949 [M918T]
[14] = system: ABL1 (human), P00519 [M351T]
[15] = biological target: ACVR2B (human) (UniProt Q13705)
[16] = biological target: EGFR (human) (UniProt P00533)
[17] = biological target: TNK2 (human) (UniProt Q07912)
[18] = biological target: PKN3 (M.tuberculosis) (UniProt Q6P5Z2)
[19] = biological target: MAP3K5 (human) (UniProt Q99683)
[20] = biological target: CDK17 (human) (UniProt Q00537)
[21] = biological target: PIP5K1A (human) (UniProt Q99755)
[22] = biological target: EPHA1 (human) (UniProt P21709)
[23] = biological target: TEK (human) (UniProt Q02763)
[24] = biological target: PRKCQ (human) (UniProt Q04759)
[25] = biological target: BMPR1A (human) (UniProt P36894)
[26] = biological target: TNIK (human) (UniProt Q9UKE5)
[27] = biological target: RPS6KA1 KD2 (human) (UniProt Q15418)
[28] = biological target: PDGFRA (human) (UniProt P16234)
[29] = biological target: NEK1 (human) (UniProt Q96PY6)
[30] = system: RET (human), P07949 [V804M]
[31] = biological target: PRKG1 (human) (UniProt Q13976)
[32] = biological target: FLT1 (human) (UniProt P17948)
[33] = biological target: STK3 (human) (UniProt Q13188)
[34] = biological target: CDK13 (human) (UniProt Q14004)
[35] = biological target: MYO3B (human) (UniProt Q8WXR4)
[36] = biological target: MARK4 (human) (UniProt Q96L34)
[37] = biological target: ACVR2A (human) (UniProt P27037)
[38] = biological target: MAP4K3 (human) (UniProt Q8IVH8)
[39] = system: EGFR (human), P00533 [G719C]
[40] = biological target: CAMK2D (human) (UniProt Q13557)
[41] = biological target: ACVR1 (human) (UniProt Q04771)
[42] = biological target: STK11 (human) (UniProt Q15831)
[43] = biological target: CHUK (human) (UniProt O15111)

STK32C (human), sequence (Q86UX6 whole entry, looked up): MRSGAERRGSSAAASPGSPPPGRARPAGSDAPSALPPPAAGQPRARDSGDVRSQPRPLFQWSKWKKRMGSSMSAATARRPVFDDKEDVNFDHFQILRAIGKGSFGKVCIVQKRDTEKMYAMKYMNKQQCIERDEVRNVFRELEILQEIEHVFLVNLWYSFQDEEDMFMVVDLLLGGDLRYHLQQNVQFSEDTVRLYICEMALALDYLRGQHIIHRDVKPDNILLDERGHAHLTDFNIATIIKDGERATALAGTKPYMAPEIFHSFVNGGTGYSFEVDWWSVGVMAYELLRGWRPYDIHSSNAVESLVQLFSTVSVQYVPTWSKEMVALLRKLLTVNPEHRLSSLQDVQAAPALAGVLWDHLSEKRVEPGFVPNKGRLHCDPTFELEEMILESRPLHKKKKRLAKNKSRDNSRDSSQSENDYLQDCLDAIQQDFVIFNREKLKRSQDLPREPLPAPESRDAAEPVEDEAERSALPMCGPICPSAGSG
MINK1 (human), sequence (Q8N4C8 whole entry, looked up): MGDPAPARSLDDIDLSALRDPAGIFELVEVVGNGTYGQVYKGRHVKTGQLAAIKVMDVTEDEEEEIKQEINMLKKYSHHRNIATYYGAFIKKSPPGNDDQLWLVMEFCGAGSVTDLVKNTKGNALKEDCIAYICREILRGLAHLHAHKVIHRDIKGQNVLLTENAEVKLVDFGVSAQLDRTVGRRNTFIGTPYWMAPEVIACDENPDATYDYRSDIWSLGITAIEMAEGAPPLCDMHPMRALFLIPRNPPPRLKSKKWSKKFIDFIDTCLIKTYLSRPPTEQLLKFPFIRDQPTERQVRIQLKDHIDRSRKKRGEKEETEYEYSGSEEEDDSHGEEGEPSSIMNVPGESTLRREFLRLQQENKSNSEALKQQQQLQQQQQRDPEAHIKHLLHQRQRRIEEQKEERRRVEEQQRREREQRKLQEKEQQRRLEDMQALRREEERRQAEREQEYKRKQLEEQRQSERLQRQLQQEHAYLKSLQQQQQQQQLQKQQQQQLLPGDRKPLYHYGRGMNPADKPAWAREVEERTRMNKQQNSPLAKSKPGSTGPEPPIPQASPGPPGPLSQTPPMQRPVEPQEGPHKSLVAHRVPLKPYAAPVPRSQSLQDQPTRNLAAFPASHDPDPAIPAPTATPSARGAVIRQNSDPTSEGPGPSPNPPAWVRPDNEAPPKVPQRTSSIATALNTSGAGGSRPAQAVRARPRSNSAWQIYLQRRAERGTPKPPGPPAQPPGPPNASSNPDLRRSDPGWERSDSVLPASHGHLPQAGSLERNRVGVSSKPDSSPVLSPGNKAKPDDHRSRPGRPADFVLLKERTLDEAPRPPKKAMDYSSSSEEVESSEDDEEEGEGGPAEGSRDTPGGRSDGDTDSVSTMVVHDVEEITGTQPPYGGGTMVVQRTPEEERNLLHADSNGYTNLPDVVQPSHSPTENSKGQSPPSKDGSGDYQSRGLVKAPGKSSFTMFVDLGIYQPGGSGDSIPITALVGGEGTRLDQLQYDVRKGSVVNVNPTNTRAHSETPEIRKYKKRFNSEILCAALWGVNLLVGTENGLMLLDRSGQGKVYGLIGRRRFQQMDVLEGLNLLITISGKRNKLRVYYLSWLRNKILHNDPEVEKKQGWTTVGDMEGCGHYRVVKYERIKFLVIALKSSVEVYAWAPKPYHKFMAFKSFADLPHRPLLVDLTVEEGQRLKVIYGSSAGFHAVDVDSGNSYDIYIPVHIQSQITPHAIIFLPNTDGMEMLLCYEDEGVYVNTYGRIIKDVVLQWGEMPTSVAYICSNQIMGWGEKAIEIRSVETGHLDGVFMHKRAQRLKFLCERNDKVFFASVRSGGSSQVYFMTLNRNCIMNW
ACVR1 (human), sequence (Q04771 whole entry, looked up): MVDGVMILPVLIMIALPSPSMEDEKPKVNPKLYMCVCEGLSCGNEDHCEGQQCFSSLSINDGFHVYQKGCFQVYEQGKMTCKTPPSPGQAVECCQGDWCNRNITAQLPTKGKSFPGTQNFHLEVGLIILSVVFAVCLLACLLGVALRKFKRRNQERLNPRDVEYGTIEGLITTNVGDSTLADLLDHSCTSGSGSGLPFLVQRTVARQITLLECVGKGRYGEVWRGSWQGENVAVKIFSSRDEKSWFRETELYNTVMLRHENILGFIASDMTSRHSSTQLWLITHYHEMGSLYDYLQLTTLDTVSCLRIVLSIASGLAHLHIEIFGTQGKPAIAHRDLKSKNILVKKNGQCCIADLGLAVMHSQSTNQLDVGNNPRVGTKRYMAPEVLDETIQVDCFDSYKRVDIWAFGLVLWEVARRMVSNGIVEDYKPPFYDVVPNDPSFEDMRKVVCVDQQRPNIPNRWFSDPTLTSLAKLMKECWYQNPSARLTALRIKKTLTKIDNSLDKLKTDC
FLT1 (human), sequence (P17948 whole entry, looked up): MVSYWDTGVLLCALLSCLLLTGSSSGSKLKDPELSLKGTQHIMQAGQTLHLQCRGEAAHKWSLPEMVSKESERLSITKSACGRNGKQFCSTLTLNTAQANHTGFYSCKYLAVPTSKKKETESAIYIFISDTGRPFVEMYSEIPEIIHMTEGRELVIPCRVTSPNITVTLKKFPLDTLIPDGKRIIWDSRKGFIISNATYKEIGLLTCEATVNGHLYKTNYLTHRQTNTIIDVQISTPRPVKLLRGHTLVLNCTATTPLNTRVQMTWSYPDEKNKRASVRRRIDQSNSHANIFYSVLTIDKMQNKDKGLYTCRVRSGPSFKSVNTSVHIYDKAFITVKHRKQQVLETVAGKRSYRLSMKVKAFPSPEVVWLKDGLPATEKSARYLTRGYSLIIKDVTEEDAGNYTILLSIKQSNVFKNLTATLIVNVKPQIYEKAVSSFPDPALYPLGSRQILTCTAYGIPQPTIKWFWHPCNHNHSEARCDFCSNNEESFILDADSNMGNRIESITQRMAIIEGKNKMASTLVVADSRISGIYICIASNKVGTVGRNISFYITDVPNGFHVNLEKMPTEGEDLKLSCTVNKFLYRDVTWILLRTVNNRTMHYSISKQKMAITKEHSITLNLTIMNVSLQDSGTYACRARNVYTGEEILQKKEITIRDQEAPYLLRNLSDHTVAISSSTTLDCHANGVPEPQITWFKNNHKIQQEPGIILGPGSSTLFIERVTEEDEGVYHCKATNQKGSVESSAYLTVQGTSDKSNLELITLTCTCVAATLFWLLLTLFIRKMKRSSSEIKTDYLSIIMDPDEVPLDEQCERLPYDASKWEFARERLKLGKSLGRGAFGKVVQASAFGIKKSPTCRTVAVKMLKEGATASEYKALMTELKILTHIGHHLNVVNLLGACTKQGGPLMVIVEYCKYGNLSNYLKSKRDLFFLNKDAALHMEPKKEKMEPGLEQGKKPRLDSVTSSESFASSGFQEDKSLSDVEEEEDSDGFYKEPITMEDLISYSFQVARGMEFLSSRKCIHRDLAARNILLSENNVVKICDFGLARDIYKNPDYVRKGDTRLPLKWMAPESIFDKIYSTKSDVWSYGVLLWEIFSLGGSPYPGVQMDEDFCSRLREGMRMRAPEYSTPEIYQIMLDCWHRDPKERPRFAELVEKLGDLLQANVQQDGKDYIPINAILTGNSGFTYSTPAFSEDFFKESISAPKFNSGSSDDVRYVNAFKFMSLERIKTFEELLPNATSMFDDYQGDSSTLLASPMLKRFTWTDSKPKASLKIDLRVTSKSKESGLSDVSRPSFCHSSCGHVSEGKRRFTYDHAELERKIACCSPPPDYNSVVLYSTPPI
RPS6KA1 KD2 (human), sequence (Q15418 whole entry, looked up): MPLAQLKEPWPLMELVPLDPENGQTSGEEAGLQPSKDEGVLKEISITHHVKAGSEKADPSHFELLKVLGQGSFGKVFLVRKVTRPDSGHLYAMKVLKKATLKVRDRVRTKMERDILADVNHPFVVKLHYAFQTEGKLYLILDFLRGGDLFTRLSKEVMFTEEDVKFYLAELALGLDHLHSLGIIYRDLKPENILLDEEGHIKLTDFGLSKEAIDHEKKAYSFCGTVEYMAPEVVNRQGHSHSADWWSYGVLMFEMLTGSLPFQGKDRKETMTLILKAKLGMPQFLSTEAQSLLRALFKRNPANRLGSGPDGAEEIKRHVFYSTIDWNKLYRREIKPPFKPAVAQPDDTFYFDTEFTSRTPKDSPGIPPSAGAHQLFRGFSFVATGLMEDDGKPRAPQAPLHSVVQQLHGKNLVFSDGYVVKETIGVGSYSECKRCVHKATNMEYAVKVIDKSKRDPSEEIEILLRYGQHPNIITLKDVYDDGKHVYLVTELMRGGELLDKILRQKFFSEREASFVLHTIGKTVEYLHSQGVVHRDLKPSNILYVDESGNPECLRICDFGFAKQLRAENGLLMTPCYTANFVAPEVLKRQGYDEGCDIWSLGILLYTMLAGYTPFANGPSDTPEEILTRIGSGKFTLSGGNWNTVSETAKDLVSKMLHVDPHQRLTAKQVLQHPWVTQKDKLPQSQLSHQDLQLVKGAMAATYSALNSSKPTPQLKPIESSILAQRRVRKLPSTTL
ACVR2B (human), sequence (Q13705 whole entry, looked up): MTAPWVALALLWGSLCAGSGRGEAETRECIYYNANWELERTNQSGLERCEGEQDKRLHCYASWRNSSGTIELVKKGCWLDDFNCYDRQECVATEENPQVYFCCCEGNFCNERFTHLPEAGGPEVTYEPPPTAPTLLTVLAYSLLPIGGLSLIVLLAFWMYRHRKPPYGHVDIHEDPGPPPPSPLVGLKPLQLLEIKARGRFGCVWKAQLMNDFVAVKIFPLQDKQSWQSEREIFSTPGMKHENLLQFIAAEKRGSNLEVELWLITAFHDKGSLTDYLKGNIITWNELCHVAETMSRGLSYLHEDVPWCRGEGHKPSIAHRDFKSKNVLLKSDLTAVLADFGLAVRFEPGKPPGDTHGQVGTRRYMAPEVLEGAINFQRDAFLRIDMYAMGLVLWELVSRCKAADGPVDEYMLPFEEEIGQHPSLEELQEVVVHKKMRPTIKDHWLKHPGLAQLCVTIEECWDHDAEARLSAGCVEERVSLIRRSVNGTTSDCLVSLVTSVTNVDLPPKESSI

For `CN(C)C/C=C/C(=O)Nc1cccc(C(=O)Nc2ccc(Nc3nccc(-c4c(-c5ccccc5)nn5ccccc45)n3)cc2)c1`, the kinase still bound, per cent of control [1] was 59%, the kinase still bound, per cent of control [2] was 100% and the kinase still bound, per cent of control [3] was 99%. For the same compound, the kinase still bound, per cent of control [4] was 47%, the kinase still bound, per cent of control [5] was 95% and the kinase still bound, per cent of control [6] was 93%. For the same compound, the kinase still bound, per cent of control [7] was 65%, the kinase still bound, per cent of control [8] was 43% and the kinase still bound, per cent of control [9] was 100%. It also gave a kinase still bound, per cent of control [10] of 100%, a kinase still bound, per cent of control [11] of 100% and a kinase still bound, per cent of control [12] of 46%. For the same compound, the kinase still bound, per cent of control [13] was 10%, the kinase still bound, per cent of control [14] was 14% and the kinase still bound, per cent of control [15] was 9.6%. For the same compound, the kinase still bound, per cent of control [16] was 1.8%, the kinase still bound, per cent of control [17] was 100% and the kinase still bound, per cent of control [18] was 100%. The kinase still bound, per cent of control [19] was 100%, the kinase still bound, per cent of control [20] was 100% and the kinase still bound, per cent of control [21] was 67%. For the same compound, the kinase still bound, per cent of control [22] was 38%, the kinase still bound, per cent of control [23] was 67% and the kinase still bound, per cent of control [24] was 28%. For the same compound, the kinase still bound, per cent of control [25] was 66%, the kinase still bound, per cent of control [26] was 27% and the kinase still bound, per cent of control [27] was 36%. It also gave a kinase still bound, per cent of control [28] of 4.4%, a kinase still bound, per cent of control [29] of 100% and a kinase still bound, per cent of control [30] of 100%. For the same compound, the kinase still bound, per cent of control [31] was 90%, the kinase still bound, per cent of control [32] was 9.3% and the kinase still bound, per cent of control [33] was 99%. The kinase still bound, per cent of control [34] was 100%, the kinase still bound, per cent of control [35] was 97% and the kinase still bound, per cent of control [36] was 100%. For the same compound, the kinase still bound, per cent of control [37] was 5.1%, the kinase still bound, per cent of control [38] was 59% and the kinase still bound, per cent of control [39] was 0.55%. It also gave a kinase still bound, per cent of control [40] of 100%, a kinase still bound, per cent of control [41] of 3.8% and a kinase still bound, per cent of control [42] of 93%. The kinase still bound, per cent of control [43] was 93%.
